Measured values: patent US7795378B2, “Peptide compositions for treatment of sexual dysfunction” (Palatin Technologies, Inc., priority 2002, dated 2010)
Where a SMILES comes first, the peptide text is derived from it. [ ]: non-standard residue; d: D form. The star is where a group is joined. dPhe(4-Cl) = N[C@H](Cc1ccc(Cl)cc1)C(=O)O; d2Nal = N[C@H](Cc1ccc2ccccc2c1)C(=O)O; Cit = NC(=O)NCCC[C@H](N)C(=O)O; Orn = NCCC[C@H](N)C(=O)O; Ahp = NCCCCCCC(=O)O; Bn = c1ccc(C*)cc1

What was measured:
[1] = target: T1, MC1-R (B16-F1 mouse melanoma cells) (Mus musculus, UniProt Q01727); assay: Competitive inhibition binding assay with 125I-NDP-MSH, MC1 receptor; conditions: 10 μM peptide, 0 assigned when raw inhibition between −10% and 10%, read-out: % Inhibition at 10 μM concentration at MC1-Receptor
T1 construct: B-16 mouse melanoma cells (containing MC1-R); endogenous in cells; host or cells: B16-F1 mouse melanoma cells (membranes)
Experimental: (§1) Competitive inhibition binding assay was conducted using membranes prepared from hMC3-R, hMC4-R, hMC5-R, and B-16 mouse melanoma cells (containing MC1-R) using 0.4 nM ^125I-NDP-MSH (0.2 nM for MCL-R) (New England Nuclear, Boston, Mass., USA) in 50 mM HEPES buffer containing 1 mM MgCl2, 2 mM CaCl2, and 5 mM KCl, at pH 7.2. The assay tube also contained a chosen concentration of the peptides of this invention, for determining inhibition of the binding of ^125I-NDP-MSH to its receptor. Non-specific binding was measured by complete inhibition of binding of ^125I-NDP-MSH in the assay in the presence of 1 μM α-MSH. Incubation was for 90 minutes at 37° C., after which the assay mixture was filtered and the membranes washed three times with ice cold buffer. The filter was dried and counted in a gamma counter for remaining radioactivity bound to the membranes. 100% specific binding was defined as the difference in radioactivity (cpm) bound to cell membranes in the absence and presence of 1 μM α-MSH. The cpm obtained in the presence of peptides of this invention were normalized with respect to 100% specific binding to determine the percent inhibition of ^125I-NDP-MSH binding. Each assay was conducted in triplicate.
(§2) The binding of the peptides of Examples 1 to 13, inclusive, to melanocortin receptors was evaluated, with results shown on Table 1. Relative binding was determined by competitive inhibition using an α-MSH analog, iodinated NDP-MSH. B16-Fl mouse melanoma cells were used as the source of MC1 receptors and HEK 293 cells, transfected with human melanocortin receptor sequences, were used as the source of MC3, MC4 and MC5 receptors. A standard competitive binding assay protocol as described above was followed, using ^125I-NDP-MSH as the radioligand. A “0” percent inhibition was assigned when the raw percent inhibition, as an average of at least triplicate measures, was between −10% and 10%; in the majority of instances, the raw percent inhibition was between −10% and 0% inhibition.

hMC3-R = target: T2, hMC3-R (Homo sapiens, UniProt P41968); assay: Competitive inhibition binding assay with 125I-NDP-MSH, MC3 receptor; conditions: 10 μM peptide, 0 assigned when raw inhibition between −10% and 10%, read-out: % Inhibition at 10 μM concentration at MC3-Receptor
T2 construct: expressed in transfected cells; host or cells: HEK 293 cells (membranes)
Experimental: as §1, §2

hMC4-R = target: T3, hMC4-R (Homo sapiens, UniProt P32245); assay: Competitive inhibition binding assay with 125I-NDP-MSH, MC4 receptor; conditions: 10 μM peptide, 0 assigned when raw inhibition between −10% and 10%, read-out: % Inhibition at 10 μM concentration at MC4-Receptor
T3 construct: expressed in transfected cells
Experimental: as §1, §2

hMC5-R = target: T4, hMC5-R (Homo sapiens, UniProt P33032); assay: Competitive inhibition binding assay with 125I-NDP-MSH, MC5 receptor; conditions: 10 μM peptide, 0 assigned when raw inhibition between −10% and 10%, read-out: % Inhibition at 10 μM concentration at MC5-Receptor
T4 construct: expressed in transfected cells; host or cells: HEK 293 cells (membranes)
Experimental: as §1, §2

Measured: inhibition at 10 µM

T3 sequence (P32245 whole entry): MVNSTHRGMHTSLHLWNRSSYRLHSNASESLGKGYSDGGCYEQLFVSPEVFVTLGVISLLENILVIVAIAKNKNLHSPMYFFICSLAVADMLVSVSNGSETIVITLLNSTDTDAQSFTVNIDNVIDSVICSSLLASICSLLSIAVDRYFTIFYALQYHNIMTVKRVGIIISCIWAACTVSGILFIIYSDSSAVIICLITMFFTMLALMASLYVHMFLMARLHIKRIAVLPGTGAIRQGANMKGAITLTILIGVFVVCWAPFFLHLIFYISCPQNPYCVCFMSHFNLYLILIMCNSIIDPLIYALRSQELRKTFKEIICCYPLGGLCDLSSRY
T2 sequence (P41968 whole entry): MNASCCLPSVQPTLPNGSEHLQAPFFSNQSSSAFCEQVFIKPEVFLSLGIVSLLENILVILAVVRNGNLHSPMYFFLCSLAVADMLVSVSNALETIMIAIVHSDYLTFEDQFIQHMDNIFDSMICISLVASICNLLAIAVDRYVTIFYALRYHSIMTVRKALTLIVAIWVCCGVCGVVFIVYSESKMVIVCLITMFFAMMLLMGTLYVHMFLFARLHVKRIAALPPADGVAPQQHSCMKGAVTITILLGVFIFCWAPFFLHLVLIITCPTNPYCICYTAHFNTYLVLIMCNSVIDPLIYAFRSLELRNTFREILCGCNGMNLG
T4 sequence (P33032 whole entry): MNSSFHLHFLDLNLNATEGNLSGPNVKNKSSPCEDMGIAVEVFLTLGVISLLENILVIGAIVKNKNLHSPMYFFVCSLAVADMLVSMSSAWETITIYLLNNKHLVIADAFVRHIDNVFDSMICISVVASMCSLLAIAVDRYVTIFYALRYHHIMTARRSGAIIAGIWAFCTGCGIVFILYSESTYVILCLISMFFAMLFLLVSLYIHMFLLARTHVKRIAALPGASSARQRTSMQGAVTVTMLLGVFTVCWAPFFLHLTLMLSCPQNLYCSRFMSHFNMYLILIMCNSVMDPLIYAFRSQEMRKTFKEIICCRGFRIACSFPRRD
T1 sequence (Q01727 whole entry): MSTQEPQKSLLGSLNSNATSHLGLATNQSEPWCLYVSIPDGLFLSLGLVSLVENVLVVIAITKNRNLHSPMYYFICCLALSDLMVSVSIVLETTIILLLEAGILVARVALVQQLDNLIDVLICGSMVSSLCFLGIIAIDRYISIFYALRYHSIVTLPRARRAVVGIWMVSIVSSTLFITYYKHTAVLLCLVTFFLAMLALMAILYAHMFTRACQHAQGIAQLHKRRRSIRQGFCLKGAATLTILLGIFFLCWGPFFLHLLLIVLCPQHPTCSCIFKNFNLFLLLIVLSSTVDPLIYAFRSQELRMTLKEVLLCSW

CC(=O)N[C@@H](COCc1ccccc1)C(=O)N[C@H](Cc1ccc(Cl)cc1)C(=O)N[C@@H](CCCNC(=N)N)C(=O)O [Ac-Ser(Bzl)-D-Phe(4-Cl)-Arg] (Ac-Ser(Bn)-[dPhe(4-Cl)]-Arg-OH)
0%: all assays above

C[C@H](NC(=O)CCCCCCN)C(=O)N[C@H](Cc1ccc(Cl)cc1)C(=O)N[C@@H](CCCNC(=N)N)C(=O)O [NH2—(CH2)6—CO-Ala-D-Phe(4-Cl)-Arg] (H-[Ahp]A[dPhe(4-Cl)]R-OH)
0%: all assays above

C[C@@H](NC(=O)[C@H](COCc1ccccc1)NC(=O)CCCCCCN)C(=O)N[C@@H](CCCNC(=N)N)C(=O)O [NH2—(CH2)6—CO-Ser(Bzl)-D-Ala-Arg] (H-[Ahp]S(Bn)[dA]R-OH)
0%: all assays above

N=C(N)NCCC[C@H](NC(=O)[C@@H](Cc1ccc2ccccc2c1)NC(=O)[C@H](COCc1ccccc1)NC(=O)CCCCCCN)C(N)=O [NH2—(CH2)6—CO-Ser(Bzl)-D-Nal 2-Arg-NH2] (H-[Ahp]S(Bn)[d2Nal]R-NH2)
0%: all assays above

N=C(N)NCCC[C@H](NC(=O)[C@@H](Cc1ccc2ccccc2c1)NC(=O)[C@H](COCc1ccccc1)NC(=O)CCCCCCN)C(=O)O [NH2—(CH2)6—CO-Ser(Bzl)-D-Nal 2-Arg] (H-[Ahp]S(Bn)[d2Nal]R-OH)
0%: all assays above

C[C@H](NC(=O)[C@@H](Cc1ccc(Cl)cc1)NC(=O)[C@H](COCc1ccccc1)NC(=O)CCCCCCN)C(=O)O [NH2—(CH2)6—CO-Ser(Bzl)-D-Phe(4-Cl)-Ala] (H-[Ahp]S(Bn)[dPhe(4-Cl)]A-OH)
0%: all assays above

N=C(N)NCCC[C@H](NC(=O)[C@@H](Cc1ccc(Cl)cc1)NC(=O)[C@H](COCc1ccccc1)NC(=O)CCCCCCN)C(N)=O [NH2—(CH2)6—CO-Ser(Bzl)-D-Phe(4-Cl)-Arg-NH2] (H-[Ahp]S(Bn)[dPhe(4-Cl)]R-NH2)
0%: all assays above

NCCCCCCC(=O)N[C@@H](COCc1ccccc1)C(=O)N[C@H](Cc1ccc(Cl)cc1)C(=O)N[C@@H](CCCNC(N)=O)C(=O)O [NH2—(CH2)6—CO-Ser(Bzl)-D-Phe(4-Cl)-Cit] (H-[Ahp]S(Bn)[dPhe(4-Cl)][Cit]-OH)
0%: all assays above

NCCCCCCC(=O)N[C@@H](COCc1ccccc1)C(=O)N[C@H](Cc1ccc(Cl)cc1)C(=O)N[C@@H](CCCCN)C(=O)O [NH2—(CH2)6—CO-Ser(Bzl)-D-Phe(4-Cl)-Lys] (H-[Ahp]S(Bn)[dPhe(4-Cl)]K-OH)
0%: all assays above

NCCCCCCC(=O)N[C@@H](COCc1ccccc1)C(=O)N[C@H](Cc1ccc(Cl)cc1)C(=O)N[C@@H](CCCN)C(=O)O [NH2—(CH2)6—CO-Ser(Bzl)-D-Phe(4-Cl)-Orn] (H-[Ahp]S(Bn)[dPhe(4-Cl)][Orn]-OH)
0%: all assays above
